Data reported in US5703072A, “Bicyclic nonane and decane compounds having dopamine receptor affinity” (Allelix Biopharmaceuticals, priority 1996, dated 1997).

How the values were obtained:
[1] = biological target: T1, human D4 receptor (D4.2 sub-type) (Homo sapiens, UniProt P21917, DEL265-296); test: D4 receptor binding: displacement of 3H-spiperone; details: D4 affinity; 3H-spiperone displacement
T1 construct: expressed in transfected cells; host or cells: HEK 298 (human embryonic kidney) cells (so in the source); homogenate of stably transfected cells
T1 sequence (P21917 with tags, fused parts or gaps DEL265-296): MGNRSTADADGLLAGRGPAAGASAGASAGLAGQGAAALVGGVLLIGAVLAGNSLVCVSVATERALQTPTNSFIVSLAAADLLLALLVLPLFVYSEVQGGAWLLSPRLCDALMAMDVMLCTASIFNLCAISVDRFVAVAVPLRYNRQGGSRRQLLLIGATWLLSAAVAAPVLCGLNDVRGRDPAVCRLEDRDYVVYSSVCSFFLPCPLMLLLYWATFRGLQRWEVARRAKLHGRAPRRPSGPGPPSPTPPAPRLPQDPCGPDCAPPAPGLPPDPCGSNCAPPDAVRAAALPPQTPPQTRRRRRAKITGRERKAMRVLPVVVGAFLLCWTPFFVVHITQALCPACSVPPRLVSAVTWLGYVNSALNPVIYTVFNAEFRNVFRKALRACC
Protocol: (§1) The potency of the test compound to reduce ^3 H-spiperone binding directly correlated to its binding affinity for the receptor.
The cells were then centrifuged in a Sorval centrifuge for 10 min, 5000 rpm (GS3 rotor) and the pellets quickly frozen in liquid nitrogen and stored at -80° C. until used in binding assay. When used in the assay, cells were thawed on ice for 20 min and then 1 mL of incubation buffer (50 mM Tris, 1 mM EDTA, 4 mM MgCl2, 5 mM KCl, 1.5 mM CaCl2, 120 mM NaCl, pH7.4) was added. […] Concentration of receptor protein was determined using the Pierce BCA assay.
(§2) The tubes were vortexed and incubated at room temperature for 90 minutes. The binding reaction was stopped by filtering using a Brandell Cell Harvester. The samples were filtered under vacuum over glass fibre filters (Whatman GF/B) presoaked for 2 hours in 0.3% polyethylenimine (PEI) in 50 mM Tris buffer (pH 7.4). The filters were then washed 3 times with 5 ml ice cold 50 mM Tris buffer (pH 7.4). Individual filter disks were put in scintillation vials (Biovials, Bechman). Ready Protein Plus liquid scintillant (5 ml, Beckman) was added and the vials counted by liquid scintillation spectrophotometry (Beckman LSC 6500) after equilibrating for three hours at room temperature to determine total binding (BT).
The tubes were vortexed and incubated at room temperature for 90 minutes at which time the binding reaction was stopped by filtering. The filters were washed and counted using the same procedure as in the total binding assay described above to give the non-specific binding value (NSB).
(§3) The incubation was started by the addition to 12×75 mm polypropylene tubes 500 μl (50 μg protein) membrane homogenate to a solution of 400 μl incubation buffer, 100 μl ([…].) ^3 H-spiperone (90 Ci/mmol, Amersham, diluted in borosilicate glass vial to) and 500 μl of test compound that was prepared from 1 mM stock dissolved in DMSO and stored at -20° C. in polypropylene cryogenic storage vials until dilution in incubation buffer in borosilicate glass vials. The tubes were vortexed and incubated at room temperature for 90 minutes at which time the binding reaction was stopped by filtering. The filters were washed and counted using the same procedure as in the total binding assay described above to give the displacement binding value (BD).
(§4) IC50 was determined from an inhibition response curve, logit-log plot of %B/B0 vs concentration of test compound.
(§5) Ki was calculated by the Cheng and Prustoff transformation: Ki=IC50 /(1+[L]/KD) where [L] is the concentration of ^3 H-spiperone used in the assay and KD is the dissociation constant of ^3 H-spiperone determined independently under the same binding conditions.

[2] = biological target: T2, human D2 receptor (short isoform) (Homo sapiens, UniProt P14416); test: D2 receptor binding (displacement of 3H-spiperone) relative to D4: D2/D4 selectivity; details: D2/D4 ratio
T2 construct: 3H-spiperone displacement
T2 sequence (P14416 with tags, fused parts or gaps DEL242-270): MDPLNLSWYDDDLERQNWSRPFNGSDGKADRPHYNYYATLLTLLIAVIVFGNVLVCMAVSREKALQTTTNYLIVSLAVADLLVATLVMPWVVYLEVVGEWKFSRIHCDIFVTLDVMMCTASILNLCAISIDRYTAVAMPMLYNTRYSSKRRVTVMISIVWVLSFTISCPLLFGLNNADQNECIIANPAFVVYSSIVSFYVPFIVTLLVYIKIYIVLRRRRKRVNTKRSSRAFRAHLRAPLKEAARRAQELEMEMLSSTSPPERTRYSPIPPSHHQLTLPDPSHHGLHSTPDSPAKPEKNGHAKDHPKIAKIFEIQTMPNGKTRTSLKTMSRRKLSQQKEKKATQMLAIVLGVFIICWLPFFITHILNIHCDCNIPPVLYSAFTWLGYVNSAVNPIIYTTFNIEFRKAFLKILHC
Protocol: as §1
GH4 C1 (rat pituitary) cells stably transfected with the human D2 receptor (short isoform) were grown in CO2 independent media in roller bottles (1500 cm^2) for 10 days. 100 μM ZnSO4 was added to the cells (the D2 promoter being zinc inducible). After 16 hours, fresh media was added to allow the cells to recover for 24 hours. The cells were harvested using versine and then centrifuged in a Sorval centrifuge for 10 minutes, at 5000 rpm (GS3 rotor). Pellets were quickly frozen in liquid nitrogen and stored at -80° C. until used in the binding assays. When used in the assay, cells were thawed on ice for 20 minutes. […] The receptor protein concentration was determined using the Pierce BCA assay.
as §2
This assay employed the same procedures as the non-specific binding assay for D4 with the exception that 2 μM (final conc.) of (-) sulpiride (Research Chemicals Inc.) was used in place of dopamine.
as §3, §4, §5

human D4 receptors = biological target: T3, human D4 receptors (Homo sapiens, UniProt P21917); test: Antagonist assay: reversal of dopamine inhibition of forskolin-stimulated adenyl cyclase (cAMP) in CHO Pro 5 cells; assay type: cell-based; details: dopamine and forskolin both 10 μM; for inhibition at 1 µM: test compound 1 μM, read-out: % REVERSAL OF DOPAMINE EFFECT, 1 μM; for inhibition at 10 µM: test compound 10 μM, read-out: % REVERSAL OF DOPAMINE EFFECT, 10 μM
T3 construct: expressed in transfected cells; host or cells: CHO Pro 5 cells, stably expressing
T3 sequence (P21917 1-419): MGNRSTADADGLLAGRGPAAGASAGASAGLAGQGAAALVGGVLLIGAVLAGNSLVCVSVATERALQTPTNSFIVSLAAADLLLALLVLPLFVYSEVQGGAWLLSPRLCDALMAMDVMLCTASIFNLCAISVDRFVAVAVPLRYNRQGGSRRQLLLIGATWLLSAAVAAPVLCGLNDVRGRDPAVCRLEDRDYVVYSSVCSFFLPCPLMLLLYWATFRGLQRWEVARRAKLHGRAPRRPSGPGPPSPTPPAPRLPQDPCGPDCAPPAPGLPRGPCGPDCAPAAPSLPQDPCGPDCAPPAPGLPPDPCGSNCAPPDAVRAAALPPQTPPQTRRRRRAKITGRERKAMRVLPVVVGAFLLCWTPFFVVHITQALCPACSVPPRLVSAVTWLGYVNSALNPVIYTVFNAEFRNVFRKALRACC
Protocol: The D4 receptor responds to dopamine and other agonists by reducing adenyl cyclase mediated production of cyclic AMP. Particular test compounds were assayed for their ability to reverse dopamine inhibition of adenyl cyclase by the following procedure. Forskolin was used to elevate the basal adenyl cyclase activity.
CHO Pro 5 cells stably expressing human D4 receptors were plated in 6 well plates in DMEM (Dulbecco's Modified Eagle Medium)/F12(Nutrient Mixture F12 (Ham)) media with 10% FCS (fetal calf serum) and G418 (Geneticen Disulfate), and incubated at 37° C. in a CO2 incubator. The cells were allowed to grow to about 70% confluence before use in the assay.
The culture media of each well was removed by aspiration, and the wells were washed once with serum free media (SFM) (DMEM/F12) media. Then 2 mL of fresh SFM+IBMX media (SFM with 0.5 mM IBMX (3-isobutyl-1-methylxanthine0.1% ascorbic acid and 10 μM pargyline) was added to each well and then incubated at 37° C. for 10 minutes in CO2 incubator. Following incubation, SFM+IBMX media was aspirated and fresh SFM+IBMX media was added to wells separately with one of a) forskolin (10 μM final conc.); b) dopamine and forskolin (both 10 μM final conc.); […]), and dopamine and forskolin (both 10 μM final conc.). Basal adenyl cyclase activity was determined from wells with only SFM+IBMX media added.
The cells were then incubated at 37° C. for 30 minutes in a CO2 incubator. Following incubation the media was aspirated from each well and then washed once with 2 mL of PBS (phosphate buffered saline). […] The cells from each well were then scraped and transferred into individual Eppendorf tubes. The tubes were centrifuged for 5 min at 4° C., and the supernatants were transferred to new Eppendorf tubes. The pellets were discarded and the supernatants dried using a SpeedVac. The extracts were then reconstituted in 600 μL of 0.1M sodium acetate buffer, pH 6.1, and stored at 4° C. until assayed for cAMP concentration. cAMP content measured in fmoles/well for each extract was determined by EIA (enzyme-immunoassay) using Amersham Biotrak cAMP EIA kit (Amersham RPN 225).
Total inhibition (I0) of forskolin-stimulated adenyl cyclase activity by dopamine was determined as the difference in concentration of cAMP in the forskolin-treated cells (Cf) and dopamine-forskolin treated cells (Cd).
Net inhibition (I) of forskolin-stimulated adenyl cyclase activity by dopamine in the presence of an antagonist was determined as the difference in concentration of cAMP in the forskolin-treated cells (Cf) and test compound, dopamine and forskolin treated cells (C).

D4 receptor = details: D4 affinity of currently marketed products; cited from earlier work
[3] = system: D4 receptor relative to the D2 receptor; details: currently marketed products; cited from earlier work

Structure (SMILES)	Ki [1] [nM]	D2/D4 [2]	inhibition at 1 µM (human D4 receptors) [%]	inhibition at 10 µM (human D4 receptors) [%]	Ki (D4 receptor) [nM]	preference for binding the D4 receptor relative to the D2 receptor [3]
Clc1ccc2c(c1)N=C(N1CCN3CCC[C@@H]3C1)c1ccccc1O2 [8-chloro-11-[(R)-1,4-diazabicyclo[4.3.0]non-4-yl]-dibenzo[b,f]-1,4-oxazepine]	18	32.2	–	–	–	–
Clc1ccc2c(c1)N=C(N1CCN3C[C@@H](OCc4ccccc4)C[C@H]3C1)c1ccccc1O2 [8-chloro-11-[(6S,8S)-8-benzyloxy-1,4-diazabicyclo[4.3.0]non-4-yl]-dibenzo[b,f]-1,4-oxazepine]	24	25.6	–	–	–	–
Clc1ccc2c(c1)N=C(N1CCN3CCC[C@H]3C1)c1ccccc1O2 [8-chloro-11-[(S)-1,4-diazabicyclo[4.3.0]non-4-yl]-dibenzo[b,f]-1,4-oxazepine]	1.2	104.5	23	48	–	–
O[C@H]1C[C@H]2CN(C3=Nc4cc(Cl)ccc4Oc4ccccc43)CCN2C1 [8-chloro-11-[(6S,8S)-8-hydroxy-1,4-diazabicyclo[4.3.0]non-4-yl]-dibenzo[b,f]-1,4-oxazepine]	28	18.2	–	–	–	–
Clc1ccc2c(c1)N=C(N1CCN3CCCCC3C1)c1ccccc1O2 (racemic) [8-chloro-11-[(R,S)-1,4-diazabicyclo[4.4.0]decan-4-yl]-dibenzo[b,f]-1,4-oxazepine]	15.7	6.8	–	–	–	–
Clc1ccc2c(c1)N=C(N1CCN3CCCC[C@@H]3C1)c1ccccc1O2 [8-chloro-11-[(R)-1,4-diazabicyclo[4.4.0]decan-4-yl]-dibenzo[b,f]-1,4-oxazepine]	402	4.1	–	–	–	–
CN1CCN(C2=Nc3cc(Cl)ccc3Oc3ccccc32)CC1 [isoloxapine]	–	–	–	–	~20	about 10 fold
Clc1ccc2c(c1)N=C(N1CCN3CCCC[C@H]3C1)c1ccccc1O2 [8-chloro-11-[(S)-1,4-diazabicyclo[4.4.0]decan-4-yl]-dibenzo[b,f]-1,4-oxazepine]	1	40	52	93	–	–
